Experimental data from patent US5696277A, “Antiviral prodrugs” (Hostetler; Karl Y., priority 1994, dated 1997).
Read-outs that look alike come from different tables or passages of the source.

Legend:
human cytomegalovirus = assay: CMV antiviral susceptibility assay: HCMV DNA by nucleic acid hybridization in infected MRC-5 cells (Tables I and II); assay type: cell-based; conditions: for fold increase in activity / times the activity of PAA: HCMV; for IC50: HCMV-infected MRC-5 cells, HCMV DNA after five days, mean ± S.D. (n)
Experimental: Phosphonoacid derivatives having structures according to formula I were tested for antiviral activity in human embryonic lung fibroblasts (MRC-5) or in human epithelioid cervical carcinoma cells (HeLa) expressing the CD4 receptor (HT4-6C). HCMV (strain AD-169) and HSV-1 (wild type) were used to infect MRC-5 cells and HCMV or HSV-specific DNA was measured by DNA-probe methods (HybriwixTM, Diagnostic Hybrids, Inc., Athens, Ohio) according to the manufacturer's instructions. HIV replication was accessed in HIV-1 infected HT4-6C cells using a plaque reduction assay ([…]. et al. (1990) Antimicrobial Agents Chemother. 34:436). Subconfluent MRC-5 cells in 24-well culture dishes were pretreated for 24 hours with various concentrations of drug in MEM medium containing 2% FBS and antibiotics. The media was removed and virus added at a dilution that will result in a 3-4+ cytopathic effect (CPE) in the no-drug wells in five days. This was absorbed for 1 hour at 37° C., aspirated and replaced with the drug dilutions. After five days of incubation HCMV DNA was quantified in triplicate by nucleic acid hybridization using a CMV Antiviral Susceptibility Test Kit from Diagnostic Hybrids, Inc. (Athens, Ohio). The media was removed and cells lysed according to the manufacturer's instructions. After absorption of the lysate, the HybriwixTM filters were hybridized overnight at 60° C. The HybriwixTM were washed for 30 minutes at 73° C. and counted in a gamma counter. The results are expressed as a percentage of the untreated HCMV-infected control cells.

[1] = tested on: human herpes simplex virus 1; assay: HSV antiviral susceptibility assay: HSV DNA by nucleic acid hybridization in infected MRC-5 cells (Table III); assay type: cell-based; conditions: for times more active than PFA / fold increase in activity: HSV-1; for fold increase in activity: versus PFA
Experimental: (§1) Phosphonoacid derivatives having structures according to formula I were tested for antiviral activity in human embryonic lung fibroblasts (MRC-5) or in human epithelioid cervical carcinoma cells (HeLa) expressing the CD4 receptor (HT4-6C). HCMV (strain AD-169) and HSV-1 (wild type) were used to infect MRC-5 cells and HCMV or HSV-specific DNA was measured by DNA-probe methods (Hybriwix™, Diagnostic Hybrids, Inc., Athens, Ohio) according to the manufacturer's instructions. HIV replication was accessed in HIV-1 infected HT4-6C cells using a plaque reduction assay (Larder, B. et al. (1990) Antimicrobial Agents Chemother. 34:436).
Subconfluent MRC-5 cells in 24-well culture dishes were inoculated by removing the media and adding HSV-1 virus at a dilution that will result in a 3-4+ CPE in the no-drug well in 20-24 hours. This was absorbed for 1 hour at 37° C., aspirated and replaced with various concentrations of drugs in MEM medium containing 2% FBS and antibiotics. After approximately 24 hours of incubation, HSV DNA was quantified in triplicate by nucleic acid hybridization using a HSV Antiviral Susceptibility Test Kit from Diagnostic Hybrids, Inc. (Athens, Ohio). The media was removed and cells lysed according to the manufacturer's instructions. After absorption of the lysate, the Hybriwix™ filters were hybridized overnight at […] The Hybriwix™ were washed for 30 minutes at 73° C. and counted in a gamma counter. The results are expressed as a percentage of the untreated HSV-infected control cells.

[2] = tested on: human immunodeficiency virus-1; assay: HIV-1 plaque reduction assay in HT4-6C cells (Table IV); assay type: cell-based, HIV-1 in CD4-expressing human HeLa cells (HT4-6C); conditions: for fold increase in activity: HIV-1, versus PFA; for IC50: Human immunodeficiency virus 1, 72 h, HIV-1 plaque reduction in HT4-6C cells, 3 days, mean ± S.D. (n)
Experimental: as §1
HT4-6C cells and plaque reduction assay, CD4-expressing HeLa cells, HT4-6C cells (Chesebro, B. and K. Wehrly (1988) J. Virology 62:3779-3788), were obtained from Bruce Chesebro, Hamilton, Mont. The effect of antiviral compounds on HIV replication was measured by a plaque reduction assay. Briefly, monolayers of HT4-6C cells were infected with 100 to 300 PFU of virus per well in 24-well microdilution plates. Various concentrations of drug were added to the culture medium, Dulbecco's Modified Eagle Medium containing 5% fetal bovine serum and antibiotics, as noted above. After 3 days at 37° C., the monolayers were fixed with 10% formaldehyde solution in phosphate-buffered saline and stained with 0.25% crystal violet to visualize virus plaques (Larder, B. et al. (1989) Science 243:1731-1734). Antiviral activity was assessed as the percentage of control plaques measured in drug-treated samples.

[3] = in vivo; cited from earlier work
[4] = tested on: DNA polymerase of many viruses, including human cytomegalovirus (HCMV), herpes simplex virus (HSV); conditions: HSV and many other viruses; cited from earlier work
[5] = tested on: reverse transcriptase of human immunodeficiency virus (HIV); conditions: cited from earlier work
MRC-5 cells = assay: in vitro; assay type: cell-based, human
Experimental: (§2) The cytotoxicity of B-PFA and B-PAA in subconfluent MRC-5 cells was assessed by trypan blue exclusion.

in vitro = assay type: cell-based, human; conditions: human, mrc-5 cells
Experimental: as §2

[6] = phosphonoacetate series, versus PAA
[7] = Human betaherpesvirus 5, MRC5, 120 h
[8] = Human alphaherpesvirus 1, MRC5, HSV-1-infected MRC-5 cells, approximately 24 hours, mean ± S.D. (n), read-out: IC50
[9] = phosphonoformate series, versus PFA

SMILES	fold increase in activity (human cytomegalovirus; [6]) [fold]	IC50 (human cytomegalovirus; [7]) [µM]	fold increase in activity (human cytomegalovirus; [9]) [fold]	also measured
CCCCCCCCCCCCCCCCCCOC[C@H](COP(=O)(O)CC(=O)OCC)OC [MB--PAA--OEt, 1-O-octadecyl-2-O-methyl-sn-glycero-3-phosphonoacetic acid ethyl ester]	3.3	6.7 ± 1.9	–	–
CCCCCCCCCCCCCCCCCCOC[C@H](COC(=O)CP(=O)(O)O)OCc1ccccc1 [BB--(C)--PAA, 1O-octadecyl-2-O-benzyl-snglycero-3-carboxymethylenephosphonate]	16	1.4 ± 0.9	–	–
CCCCCCCCCCCCCCCCCCOC[C@H](COP(=O)(O)C(=O)O)OCc1ccccc1 [BB--PFA, 1O-octadecyl-2-O-benzyl-snglycero-3-phosphonoformic acid]	–	0.64 ± 0.65	72	times more active than PFA [1]: 34 times; fold increase in activity [1]: 34 fold; IC50 [1, 8]: 1.4 ± 0.4 µM; fold increase in activity [2]: 9.0 fold; fold increase in activity ([2]; listed as BB-PFA): 9 fold; IC50 [2]: 14.8 ± 7.3 µM
CCCCCCCCCCCCCC(=O)OC[C@H](COP(=O)(O)CC(=O)OCC)OC(=O)CCCCCCCCCCCCC [DMG--PAA--OEt, 1,2dimyristoyl-snglycero-3-phosphonoacetate ethyl ester]	0.2	108 ± 42	–	–
CCCCCCCCCCCCCC(=O)OC[C@H](COP(=O)(O)CC(=O)O)OC(=O)CCCCCCCCCCCCC [DMG--PAA, 1,2dimyristoyl-snglycero-3-phosphonoacetate]	1.2	19 ± 6.5	–	times the activity of PAA (human cytomegalovirus): 1.2 times
O=C(O)P(=O)(O)O [PFA, phosphonoformic acid, reference compound]	–	46 ± 19	–	toxicity in humans [3]: substantial toxicity to the kidney and other organs; selective inhibition of viral DNA polymerase [4]: selectively inhibit the DNA polymerase of many viruses; selective inhibition of HIV reverse transcriptase [5]: selectively inhibit; IC50 ([1]; Human alphaherpesvirus 1, MRC5, 24 h): 47 ± 20 µM; IC50 [2]: 133 ± 54 µM
CCCCCCCCCCCCCCCCCCOC[C@H](COP(=O)(O)CC(=O)O)OCc1ccccc1 [BB--PAA, 1O-octadecyl-2-O-benzyl-snglycero-3-phosphonoacetic acid]	24	0.92 ± 0.8	–	–
CCCCCCCCCCCCCC(=O)OC[C@H](COP(=O)(O)C(=O)OCC)OC(=O)CCCCCCCCCCCCC [DMG--PFA--OEt, 1,2dimyristoyl-snglycero-3-phosphonoformate ethyl ester]	–	30 ± 18	1.53	–
CCCCCCCCCCCCCCCCCCOC[C@@H](O)COP(=O)(O)CC(=O)O [B--PAA, 1O-octadecyl-snglycero-3-phosphonoacetic acid]	100	0.22 ± 0.08	–	selectivity index (MRC-5 cells): ≥ 300; CC50 (in vitro): 32 to 100 µM
CCCCCCCCCCCCCCCCCCOC[C@@H](O)COP(=O)(O)C(=O)OCC [B--PFA--OEt, 1O-octadecyl-snglycero-3-phosphonoformate ethyl ester]	–	1.2 ± 0.49	38	–
CCCCCCCCCCCCCCCCCCOC[C@@H](O)COP(=O)(O)CC(=O)OCC [B--PAA--OEt, 1O-octadecyl-snglycero-3-phosphonoacetate ethyl ester]	6.1	3.6 ± 1.5	–	–
CCCCCCCCCCCCCCCCCCOC[C@H](COP(=O)(O)C(=O)OCC)OCc1ccccc1 [BB--PFA--OEt, 1O-octadecyl-2-O-benzyl-snglycero-3-phosphonoformate ethyl ester]	–	2.9 ± 0.97	16	–
CCCCCCCCCCCCCCCCCCOC[C@H](COP(=O)(O)CC(=O)O)OC [MB--PAA, 1O-octadecyl-2-O-methyl-snglycero-3-phosphonoacetic acid]	36	0.61 ± 0.76	–	–
CCCCCCCCCCCCCCCC(=O)OC[C@H](COP(=O)(O)OP(=O)(O)CC(=O)O)OC(=O)CCCCCCCCCCCCCCC [DPP--PAA, 1,2dipalmitoyl-snglycero-3-phospho-phosphonoacetate]	0.3	–	–	times the activity of PAA (human cytomegalovirus): 0.28 times; IC50 (human cytomegalovirus): 80 ± 42 µM
CCCCCCCCCCCCCC(=O)OC[C@H](COP(=O)(O)OP(=O)(O)CC(=O)O)OC(=O)CCCCCCCCCCCCC [DMP--PAA, 1,2dimyristoyl-snglycero-3-phospho-phosphonoacetate]	0.2	–	–	times the activity of PAA (human cytomegalovirus): 0.24 times; IC50 (human cytomegalovirus): 93 ± 92 µM
CCCCCCCCCCCCCCCCCCOC[C@H](COP(=O)(O)C(=O)O)OC [MB--PFA, 1O-octadecyl-2-O-methyl-snglycero-3-phosphonoformic acid]	–	0.64 ± 0.14	72	times more active than PFA [1]: 72 times; fold increase in activity [1]: 72 fold; IC50 [1, 8]: 0.65 ± 0.21 µM; activity compared with B-PFA ([2]; HIV-1, HT4-6C cells, p = 0.0373 versus B-PFA): more active than B-PFA to a statistically significant degree; fold increase in activity [2]: 104 fold; IC50 [2]: 1.28 ± 0.73 µM; fold increase in activity (human cytomegalovirus; phosphonoformate series, versus PFA, listed as MB-PFA): 38 fold
CCCCCCCCCCCCCCCCCCOC[C@H](COP(=O)(O)CC(=O)OCC)OCc1ccccc1 [BB--PAA--OEt, 1O-octadecyl-2-O-benzyl-snglycero-3-phosphonoacetate ethyl ester]	3.1	7.2 ± 1	–	–
CCCCCCCCCCCCCCCCCCOC[C@@H](O)COP(=O)(O)C(=O)O [B--PFA, 1O-octadecyl-snglycero-3-phosphonoformic acid]	–	0.43 ± 0.27	107	selectivity index (MRC-5 cells): ≥ 300; CC50 (in vitro): > 1000 µM; times more active than PFA [1]: 43 times; fold increase in activity [1]: 43 fold; IC50 [1, 8]: 1.1 ± 1.1 µM; fold increase in activity [2]: 37 fold; IC50 [2]: 3.6 ± 1.51 µM
CCCCCCCCCCCCCC(=O)OC[C@H](COP(=O)(O)C(=O)O)OC(=O)CCCCCCCCCCCCC [DMG--PFA, 1,2dimyristoyl-snglycero-3-phosphonoformate]	–	125 ± 43	0.33	–
CCCCCCCCCCCCCC(=O)OC[C@H](COP(=O)(O)OP(=O)(O)CC(=O)OCC)OC(=O)CCCCCCCCCCCCC [DMP--PAA--OEt, 1,2dimyristoyl-snglycero-3-phospho-phosphonoacetate ethyl ester]	0.2	–	–	IC50 (human cytomegalovirus): 130 ± 28 µM
O=C(O)CP(=O)(O)O [PAA, phosphonoacetic acid]	–	22 ± 7	–	toxicity in humans [3]: too toxic for use in humans; selective inhibition of viral DNA polymerase [4]: selectively inhibit the DNA polymerase of many viruses; selective inhibition of HIV reverse transcriptase [5]: selectively inhibit
